Calls of active or inactive are those of the source. No rule for the calls is given here.
Assay: M. tuberculosis BioA enzyme inhibitors, biochemical, single concentration, dry powder (AID 743184)
Details: at 9.99 µM; active compounds read high

With `COc1ccc(N2CCN(C(=O)c3ccc4c(c3)OCO4)CC2)cc1` as the compound, how does the activity score read?
The activity score was -1.28% (inactive).

With `Cc1ccc(/C=C(\CC(=O)O)c2nc3ccccc3s2)cc1[N+](=O)[O-]` as the compound, how does the activity score read?
Its activity score is -2.58% (inactive).

With `Cc1cccc(/C=C(\CCC(=O)O)c2nc3ccccc3s2)c1` as the compound, how does the activity score read?
The activity score was 1.92% (inactive).

With `Cc1cc(C)n2nc(C(=O)Nc3cccnc3)nc2n1` as the compound, how does the activity score read?
Its activity score is 11.6% (inactive).

For `CC(=O)c1ccc(N2CCN(C(=O)c3ccc4c(c3)OCCO4)CC2)cc1`, which activity score is on record?
The activity score was -1.22% (inactive).

With `O=C(Nc1ccc(F)cc1)N1CCN(c2ccccc2)CC1` as the compound, how does the activity score read?
The activity score was 5.21% (inactive).

For `O=C(Nc1ccc2snnc2c1)N1CCN(c2ccccc2)CC1`, which activity score is on record?
The activity score was -7.17% (inactive).

For `CC(=O)c1ccc(N2CCN(C(=O)c3cccc(Cl)c3)CC2)cc1`, which activity score is on record?
Its activity score is -11.7% (inactive).

Which activity score does the source give for `O=C(O)CC/C(=C\c1ccccc1[N+](=O)[O-])c1nc2ccccc2s1` here?
Its activity score is -1.5% (inactive).

With `Cc1nc2cc(NC(=O)N3CCN(c4ccccc4)CC3)ccc2o1` as the compound, how does the activity score read?
Its activity score is 4.18% (inactive).

Which activity score does the source give for `O=C(Nc1ccncc1)c1cc2nc(C3CC3)cc(C(F)F)n2n1` here?
Its activity score is -0.117% (inactive).

With `O=C(O)CC/C(=C\c1ccc([N+](=O)[O-])cc1)c1nc2ccccc2s1` as the compound, how does the activity score read?
The activity score was 1.57% (inactive).

For `CC(C)(C)c1ccc(C(=O)N2CCN(c3ccc4c(c3)OCO4)CC2)cc1`, which activity score is on record?
The activity score was -3.13% (inactive).

For `CCc1ccc(N2CCN(C(=O)c3ccc4c(c3)OCO4)CC2)cc1`, which activity score is on record?
Its activity score is -0.719% (inactive).

For `COC(=O)c1c(C(=O)OC)c(-c2cccc(F)c2)n2c1CS(=O)C2` (centres undefined), which activity score is on record?
Its activity score is -8.08% (inactive).

With `Cc1ccc(-c2cc(C(F)(F)F)n3nc(C(=O)Nc4cccnc4)cc3n2)cc1` as the compound, how does the activity score read?
Its activity score is 8.78% (inactive).

With `O=C(Nc1ccc(Cl)c(-c2nc3ccccc3[nH]2)c1)c1cccnc1` as the compound, how does the activity score read?
Its activity score is 5.48% (inactive).

With `COc1ccc(C(=O)N2CCN(c3ccc(C(C)=O)cc3)CC2)cc1` as the compound, how does the activity score read?
The activity score was 20.7% (inactive).

For `CC(=O)c1ccc(N2CCN(C(=O)c3ccc(F)cc3)CC2)cc1`, which activity score is on record?
Its activity score is -3.75% (inactive).

Which activity score does the source give for `COc1ccc(NC(=O)N2CCN(c3ccccc3)CC2)cc1` here?
The activity score was -12.2% (inactive).

For `O=C(c1ccc2c(c1)OCO2)N1CCN(c2ccccc2)CC1`, which activity score is on record?
The activity score was 0.078% (inactive).

Which activity score does the source give for `CC(=O)c1ccc(N2CCN(C(=O)c3cccnc3)CC2)cc1` here?
Its activity score is -8.01% (inactive).

Which activity score does the source give for `O=C(c1ccc2c(c1)OCO2)N1CCN(c2ccc(Cl)cc2)CC1` here?
The activity score was -0.291% (inactive).

With `Cc1nc2ccc(NC(=O)N3CCN(c4ccccc4)CC3)cc2s1` as the compound, how does the activity score read?
The activity score was -0.913% (inactive).

For `O=C(Nc1cccc(Cl)c1)N1CCN(c2ccccc2)CC1`, which activity score is on record?
Its activity score is 3.11% (inactive).

With `CC(=O)c1ccc(N2CCN(C(=O)c3ccc(C)cc3)CC2)cc1` as the compound, how does the activity score read?
Its activity score is -7.19% (inactive).

Which activity score does the source give for `O=C(Nc1ccc2[nH]ccc2c1)N1CCN(c2ccccc2)CC1` here?
The activity score was 29.5% (inactive).

Which activity score does the source give for `CC(=O)c1ccc(N2CCN(C(=O)c3ccc(Br)cc3)CC2)c(F)c1` here?
The activity score was 7.7% (inactive).

For `CC(=O)c1ccc(N2CCN(C(=O)c3ccccc3)CC2)cc1`, which activity score is on record?
Its activity score is -3.73% (inactive).

With `CC(=O)c1ccc(N2CCN(C(=O)c3ccc(Cl)cc3)CC2)cc1` as the compound, how does the activity score read?
The activity score was 5.46% (inactive).

For `O=C(Nc1ccc2snnc2c1)N1CCCCC1`, which activity score is on record?
The activity score was -5.56% (inactive).

With `O=C(Nc1cccnc1)c1cnn2c(C(F)F)cc(C3CC3)nc12` as the compound, how does the activity score read?
Its activity score is -3.98% (inactive).

For `COc1ccc(-c2cc(C(F)(F)F)n3nc(C(=O)Nc4cccnc4)cc3n2)cc1`, which activity score is on record?
The activity score was -9.52% (inactive).

For `CCc1ccc(C(=O)N2CCN(Cc3ccc4c(c3)OCO4)CC2)cc1`, which activity score is on record?
The activity score was 0.311% (inactive).

Which activity score does the source give for `Cc1ccc(/C=C(\CCC(=O)O)c2nc3ccccc3s2)cc1` here?
Its activity score is -6% (inactive).

For `COc1cccc(NC(=O)N2CCN(c3ccccc3)CC2)c1`, which activity score is on record?
Its activity score is 2.06% (inactive).

Which activity score does the source give for `Cc1ccccc1/C=C(\CCC(=O)O)c1nc2ccccc2s1` here?
Its activity score is -6.51% (inactive).

Which activity score does the source give for `O=C(Nc1ccccc1)N1CCN(c2ccccc2)CC1` here?
The activity score was -4.99% (inactive).

For `O=C(Nc1ccc(Cl)cc1)c1cc2nc(C3CC3)cc(C(F)(F)F)n2n1`, which activity score is on record?
Its activity score is -6.7% (inactive).

With `O=C(c1ccc2c(c1)OCO2)N1CCN(c2ccc(F)cc2)CC1` as the compound, how does the activity score read?
The activity score was -13.9% (inactive).

For `O=C(Nc1cccnc1)c1cc2nc(-c3cccs3)cc(C(F)(F)F)n2n1`, which activity score is on record?
Its activity score is 6.22% (inactive).

For `O=C(Nc1cccnc1)N1CCN(c2ccccc2)CC1`, which activity score is on record?
Its activity score is -4.1% (inactive).

With `CC(=O)c1ccc(N2CCN(C(=O)c3cccc(F)c3)CC2)cc1` as the compound, how does the activity score read?
The activity score was -6.65% (inactive).

With `CC(=O)c1ccc(N2CCN(Cc3ccc4c(c3)OCO4)CC2)cc1` as the compound, how does the activity score read?
Its activity score is -2% (inactive).

With `CC(=O)c1ccc(N2CCN(C(=O)c3ccc4ncsc4c3)CC2)cc1` as the compound, how does the activity score read?
Its activity score is -4.47% (inactive).

With `Cc1ccc(/C=C(\CCC(=O)O)c2nc3ccccc3s2)cc1[N+](=O)[O-]` as the compound, how does the activity score read?
The activity score was -15.2% (inactive).

For `O=C(COc1ccc2ccc(=O)oc2c1)N1CCN(c2ccc(F)cc2)CC1`, which activity score is on record?
The activity score was 3.38% (inactive).

Which activity score does the source give for `COc1cccc(NC(=O)CCC2CCN(C(=O)c3ccc(C(C)=O)s3)CC2)c1` here?
The activity score was 1.4% (inactive).

Which activity score does the source give for `O=C(c1ccc2c(c1)OCO2)N1CCN(Cc2ccccc2)CC1` here?
Its activity score is -10.2% (inactive).

Which activity score does the source give for `O=C(Nc1cccc(F)c1)N1CCN(c2ccccc2)CC1` here?
Its activity score is -3.46% (inactive).

Which activity score does the source give for `Cc1ccc(/C=C(\CCCC(=O)O)c2nc3ccccc3s2)cc1[N+](=O)[O-]` here?
Its activity score is 1.05% (inactive).

For `Cc1ccc(NC(=O)N2CCN(c3ccccc3)CC2)cc1`, which activity score is on record?
The activity score was 17.2% (inactive).

With `O=C(Nc1cccnc1)c1cnn2c(C(F)(F)F)cc(-c3ccccc3)nc12` as the compound, how does the activity score read?
Its activity score is 11.8% (inactive).

With `Cc1cc(C)n2nc(C(=O)Nc3cccnc3)cc2n1` as the compound, how does the activity score read?
The activity score was 27.1% (inactive).

Reference: PubChem BioAssay AID743184 (Broad Institute, 2013)
